{"source": "paper PMC3587680", "about": "(European journal of medicinal chemistry, 2012)", "key": {"[1]": {"molecular_target": "T1, recombinant human thymidine kinase 1 (hTK1) (Homo sapiens, UniProt P04183)", "T1 sequence (P04183 1-234)": "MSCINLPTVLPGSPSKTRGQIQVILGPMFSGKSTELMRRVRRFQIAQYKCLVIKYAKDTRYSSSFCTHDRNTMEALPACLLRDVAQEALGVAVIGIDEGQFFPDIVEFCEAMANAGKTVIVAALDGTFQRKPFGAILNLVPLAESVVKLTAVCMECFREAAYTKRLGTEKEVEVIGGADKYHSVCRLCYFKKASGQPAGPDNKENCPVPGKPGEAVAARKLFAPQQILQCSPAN", "conditions": "for kcat ± SD: apparent, varying substrate concentrations, 100 μM ATP, three replicates; for rkcat/Km (kcat/Km relative to that of dThd): current recombinant hTK1 preparation (specific activity 441 nmol/min/mg)"}, "[2]": {"assay": "Thermodynamic solubility in PBS", "type": "physicochemical", "conditions": "PBS pH 7.4, 25 °C"}, "[3]": {"molecular_target": "T1, recombinant human thymidine kinase 1 (hTK1)", "conditions": "PTA conditions"}, "L929 TK (+) cells": {"tested_on": "L929 TK (+) cells", "conditions": "cited from earlier work"}, "intracranial RG2 glioma": {"tested_on": "intracranial RG2 glioma", "conditions": "rats bearing intracranial RG2 glioma, cited from earlier work"}, "[4]": {"molecular_target": "T1, recombinant human thymidine kinase 1 (hTK1)", "conditions": "different hTK1 enzyme preparation, previous study; cited from earlier work"}}}
{"substance": "3-[1(2)-closo-1,7-Carboranylbutyltetrazol-5-yl]thymidine [11d1/2]", "values": [{"measurement": "kcat ± SD", "setting": "[1]", "result": "0.32 ± 0.02", "unit": "S^-1"}, {"measurement": "rkcat/Km (kcat/Km relative to that of dThd)", "setting": "[1]", "result": 19.7, "unit": "%"}, {"measurement": "Solubility in PBS pH 7.4", "setting": "[2]", "result": "13.3 - 13.8 |g/mL ^*"}]}
{"substance": "3-[1(2)-closo-1,7-Carboranylbutyltetrazol-5-ylmethyl]thymidine [9d1/2]", "values": [{"measurement": "kcat ± SD", "setting": "[1]", "result": "0.47 ± 0.04", "unit": "S^-1"}, {"measurement": "rkcat/Km (kcat/Km relative to that of dThd)", "setting": "[1]", "result": 8.9, "unit": "%"}, {"measurement": "Solubility in PBS pH 7.4", "setting": "[2]", "result": "33.9 ± 1.4 |g/mL"}]}
{"substance": "3-[1(2)-closo-1,7-Carboranylethyltetrazol-5-yl]thymidine [11b1/2]", "values": [{"measurement": "kcat ± SD", "setting": "[1]", "result": "0.35 ± 0.03", "unit": "S^-1"}, {"measurement": "Solubility in PBS pH 7.4", "setting": "[2]", "result": "42.6 ± 1.0 |g/mL"}]}
{"substance": "3-[1(2)-closo-1,7-Carboranylethyltetrazol-5-ylmethyl]thymidine [9b1/2]", "values": [{"measurement": "kcat ± SD", "setting": "[1]", "result": "0.44 ± 0.03", "unit": "S^-1"}, {"measurement": "rkcat/Km (kcat/Km relative to that of dThd)", "setting": "[1]", "result": 14.9, "unit": "%"}, {"measurement": "Solubility in PBS pH 7.4", "setting": "[2]", "result": "133.1 ± 5.2 |g/mL"}]}
{"substance": "3-[1(2)-closo-1,7-Carboranylpropyltetrazol-5-yl]thymidine [11c1/2]", "values": [{"measurement": "kcat ± SD", "setting": "[1]", "result": "0.37 ± 0.06", "unit": "S^-1"}, {"measurement": "rkcat/Km (kcat/Km relative to that of dThd)", "setting": "[1]", "result": 5.0, "unit": "%"}, {"measurement": "Solubility in PBS pH 7.4", "setting": "[2]", "result": "25.4 - 26.3 |g/mL^2"}]}
{"substance": "3-[1(2)-closo-1,7-Carboranylpropyltetrazol-5-ylmethyl]thymidine [9c1/2]", "values": [{"measurement": "kcat ± SD", "setting": "[1]", "result": "0.39 ± 0.04", "unit": "S^-1"}, {"measurement": "rkcat/Km (kcat/Km relative to that of dThd)", "setting": "[1]", "result": 7.6, "unit": "%"}, {"measurement": "Solubility in PBS pH 7.4", "setting": "[2]", "result": "84.2 ± 4.1 |g/mL"}]}
{"substance": "3-[2-Imino-2-{2-(closo-1,7-carboranyl)ethylamino}ethyl]thymidine [Compound 3e]", "values": [{"measurement": "Solubility in PBS pH 7.4", "setting": "[2]", "result": ">19.5", "unit": "mg/mL"}, {"measurement": "Stability under phosphoryl transfer assay conditions (phosphorylated side products, dTMP)", "setting": "[3]", "result": "did not appear to produce significant amounts of dTMP as a side product"}]}
{"substance": "3-[2-Imino-2-{3-(closo-1,7-carboranyl)propylamino}ethyl]thymidine [Compound 3f]", "values": [{"measurement": "Solubility in PBS pH 7.4", "setting": "[2]", "result": ">15", "unit": "mg/mL"}, {"measurement": "Stability under phosphoryl transfer assay conditions (phosphorylated side products, dTMP)", "setting": "[3]", "result": "did not appear to produce significant amounts of dTMP as a side product"}]}
{"substance": "3-[5-{2-(2,3-dihydroxyprop-1-yl)-o-carboran-1-yl}pentan-1-yl]thymidine [Compound N5-2OH]", "values": [{"measurement": "kcat ± SD", "setting": "[1]", "result": "0.42 ± 0.03", "unit": "S^-1"}, {"measurement": "rkcat/Km (kcat/Km relative to that of dThd)", "setting": "[1]", "result": 10.8, "unit": "%"}, {"measurement": "In vitro uptake in L929 TK (+) cells relative to L929 TK (−) cells", "setting": "L929 TK (+) cells", "result": "5-10 fold"}, {"measurement": "Boron concentration in tumor relative to normal brain", "setting": "intracranial RG2 glioma", "result": 10, "unit": "fold"}, {"measurement": "Boron concentration in normal brain", "setting": "intracranial RG2 glioma; normal brain", "result": 2.6, "unit": "μg B/g tumor"}, {"measurement": "Boron concentration in tumor", "setting": "intracranial RG2 glioma; tumor", "result": 27.6, "unit": "μg B/g tumor"}, {"measurement": "Solubility in PBS pH 7.4", "setting": "[2]", "result": "7-10 |g/mL"}, {"measurement": "rkcat/Km", "setting": "[4]", "result": 35.8, "unit": "%"}]}
